We go through 42 molecules from patent US8063053B2, “1-(arylsulfonyl)-4-(piperazin-1-yl)-1H-benzimidazoles as 5-hydroxytryptamine-6 ligands” (Wyeth LLC, priority 2008, dated 2011).

T1 sequence (P50406 whole entry): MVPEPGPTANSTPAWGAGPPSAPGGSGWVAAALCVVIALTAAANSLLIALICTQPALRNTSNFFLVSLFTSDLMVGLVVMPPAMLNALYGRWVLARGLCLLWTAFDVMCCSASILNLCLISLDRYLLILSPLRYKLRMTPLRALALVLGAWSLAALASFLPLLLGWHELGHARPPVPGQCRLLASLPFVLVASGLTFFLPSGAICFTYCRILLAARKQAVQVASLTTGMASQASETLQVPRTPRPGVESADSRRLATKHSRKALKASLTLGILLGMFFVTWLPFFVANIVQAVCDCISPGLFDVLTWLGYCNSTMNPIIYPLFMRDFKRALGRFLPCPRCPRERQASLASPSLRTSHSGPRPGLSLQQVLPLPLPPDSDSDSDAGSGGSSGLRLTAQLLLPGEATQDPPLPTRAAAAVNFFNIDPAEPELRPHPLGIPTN

The first test addresses T1, serotonin 5-HT6 receptor subtype (Homo sapiens, UniProt P50406).
T1 construct: host or cells: CHO-Dukx-A2 cells, clone 50-7
Nature of the test: 5-HT6 binding affinity ([3H]-LSD SPA binding). To be noted: CHO-Dukx-A2 cells expressing 5-HT6 receptor (clone 50-7); 3 nM [3H]-LSD; PVT WGA SPA beads; Ki by Cheng-Prusoff; read-out: 5-HT6 binding Ki.
For `Cc1nc2c(N3CCNCC3)cccc2n1S(=O)(=O)c1ccccc1` [Example 5, 2-methyl-1-(phenylsulfonyl)-4-piperazin-1-yl-1H-benzimidazole], the Ki came to 0.53 nM.

The same test, now with this note: read-out: 5-HT6 binding Ki.
For the molecule `O=S(=O)(c1ccccc1OC(F)(F)F)n1cnc2c(N3CCNCC3)cccc21` [Example 33, 4-piperazin-1-yl-1-{[2-(trifluoromethoxy)phenyl]sulfonyl}-1H-benzimidazole], the Ki worked out at 0.72 nM.
Still for that read-out and setting: the same measure for `COc1ccc(OC)c(S(=O)(=O)n2cnc3c(N4CCNCC4)cccc32)c1` [Example 67, 1-[(2,5-dimethoxyphenyl)sulfonyl]-4-piperazin-1-yl-1H-benzimidazole]: 2.13 nM; for `CC1CN(c2cccc3c2ncn3S(=O)(=O)c2ccccc2)CCN1` (stereo not drawn) [Example 128, 4-(3-methylpiperazin-1-yl)-1-(phenylsulfonyl)-1H-benzimidazole]: 0.931 nM.
Same read-out and setting: in the case of `CC(C)c1nc2c(N3CCNCC3)cccc2n1S(=O)(=O)c1cccc(Cl)c1` [Example 60] it was 1.08 nM; in that of `COc1ccc(S(=O)(=O)n2c(C)nc3c(N4CCNCC4)cccc32)cc1` [Example 13, 1-[(4-methoxyphenyl)sulfonyl]-2-methyl-4-piperazin-1-yl-1H-benzimidazole], 1.82 nM.
`COc1ccccc1S(=O)(=O)n1c(C)nc2c(N3CCNCC3)cccc21` [Example 52, 1-[(2-methoxyphenyl)sulfonyl]-2-methyl-4-piperazin-1-yl-1H-benzimidazole]: the inhibition constant (Ki) was found to be 1.89 nM.
The same measure, in the same setting: in the case of `CC(C)CC1CN(c2cccc3c2ncn3S(=O)(=O)c2ccccc2)CCN1` (stereo not drawn) [Example 123, 4-(3-isobutylpiperazin-1-yl)-1-(phenylsulfonyl)-1H-benzimidazole] it was 34.3 nM; in that of `CN1CCN(c2cccc3c2ncn3S(=O)(=O)c2cccc3ccccc23)CC1` [Example 1, 4-(4-methylpiperazin-1-yl)-1-(naphthalen-1-ylsulfonyl)-1H-benzo[d]imidazole], 0.064 nM; in that of `Cc1c(Cl)cccc1S(=O)(=O)n1c(C)nc2c(N3CCNC(C)C3)cccc21` (stereo not drawn) [Example 95, 1-[(3-chloro-2-methylphenyl)sulfonyl]-2-methyl-4-(3-methylpiperazin-1-yl)-1H-benzimidazole], 0.394 nM.
Still for that read-out and setting: the same measure for `C[C@H]1CN(c2cccc3c2ncn3S(=O)(=O)c2cccc3ccccc23)CCN1` [Example 81, 4-[(3S)-3-methylpiperazin-1-yl]-1-(naphthalen-1-ylsulfonyl)-1H-benzimidazole]: 0.354 nM.
Still for that read-out and setting: in the case of `Cc1c(Cl)cccc1S(=O)(=O)n1cnc2c(N3CCN[C@@H](C)C3)cccc21` [Example 82, 1-[(3-chloro-2-methylphenyl)sulfonyl]-4-[(3S)-3-methylpiperazin-1-yl]-1H-benzimidazole] it was 0.21 nM.
Take `O=S(=O)(c1cccc(F)c1)n1cnc2c(N3CCNCC3)cccc21` [Example 22, 1-[(3-fluorophenyl)sulfonyl]-4-piperazin-1-yl-1H-benzimidazole]: the Ki amounted to 1.5 nM.
The same measure, in the same setting: the same measure for `O=S(=O)(c1cccc(OC(F)(F)F)c1)n1cnc2c(N3CCNCC3)cccc21` [Example 28, 4-piperazin-1-yl-1-{[3-(trifluoromethoxy)phenyl]sulfonyl}-1H-benzimidazole]: 1.95 nM.
Same read-out and setting: in the case of `CC(C)C1CN(c2cccc3c2ncn3S(=O)(=O)c2cccc3ccccc23)CCN1` (stereo not drawn) [Example 121, 4-(3-isopropylpiperazin-1-yl)-1-(1-naphthylsulfonyl)-1H-benzimidazole] it was 0.952 nM; in that of `Cc1ccccc1S(=O)(=O)n1c(C)nc2c(N3CCNCC3)cccc21` [Example 47, 2-methyl-1-[(2-methylphenyl)sulfonyl]-4-piperazin-1-yl-1H-benzimidazole], 2.26 nM; in that of `COc1ccccc1S(=O)(=O)n1cnc2c(N3CCNC(C)C3)cccc21` (stereo not drawn) [Example 56, 1-[(2-methoxyphenyl)sulfonyl]-4-(3-methylpiperazin-1-yl)-1H-benzimidazole], 2.35 nM.
`Cc1c(Cl)cccc1S(=O)(=O)n1cnc2c(N3CCNC(C)C3)cccc21` (stereo not drawn) [Example 58, 1-[(3-chloro-2-methylphenyl)sulfonyl]-4-(3-methylpiperazin-1-yl)-1H-benzimidazole]: the Ki is 1.73 nM.
On the same count and under the same terms, in the case of `CC(C)c1nc2c(N3CCNCC3)cccc2n1S(=O)(=O)c1ccccc1OC(F)(F)F` [Example 63, 2-(1-methylethyl)-4-piperazin-1-yl-1-{[2-(trifluoromethoxy)phenyl]sulfonyl}-1H-benzimidazole] it was 1.14 nM; in that of `C[C@@H]1CN(c2cccc3c2ncn3S(=O)(=O)c2cccc3ccccc23)CCN1` [Example 78, 4-[(3R)-3-methylpiperazin-1-yl]-1-(naphthalen-1-ylsulfonyl)-1H-benzimidazole], 1.28 nM.
Still for that read-out and setting: the same measure for `Cc1nc2c(N3CCNC(C)C3)cccc2n1S(=O)(=O)c1cccc2ccccc12` (stereo in doubt) [Example 115, 2-methyl-4-[(3R)-3-methylpiperazin-1-yl]-1-(1-naphthylsulfonyl)-1H-benzimidazole]: 1.12 nM; for `O=S(=O)(c1ccc2ccccc2c1)n1cnc2c(N3CCNCC3)cccc21` [Example 23, 1-(2-naphthylsulfonyl)-4-piperazin-1-yl-1H-benzimidazole]: 10.6 nM.
On the same count and under the same terms, in the case of `O=S(=O)(c1ccccc1)n1cnc2c(N3CCNCC3)cc(F)cc21` [Example 103, 6-fluoro-1-(phenylsulfonyl)-4-piperazin-1-yl-1H-benzimidazole] it was 0.738 nM; in that of `O=S(=O)(c1ccccc1Cl)n1cnc2c(N3CCNCC3)cc(F)cc21` [Example 102, 1-[(2-chlorophenyl)sulfonyl]-6-fluoro-4-piperazin-1-yl-1H-benzimidazole], 0.698 nM; in that of `Cc1cccc(S(=O)(=O)n2cnc3c(N4CCNCC4)cccc32)c1` [Example 36, 1-[(3-methylphenyl)sulfonyl]-4-piperazin-1-yl-1H-benzimidazole], 1.11 nM.
As to `Cc1cccc(S(=O)(=O)n2c(C)nc3c(N4CCNCC4)cccc32)c1` [Example 18, 2-methyl-1-[(3-methylphenyl)sulfonyl]-4-piperazin-1-yl-1H-benzimidazole], the Ki was determined as 1.3 nM.
The same measure, in the same setting: in the case of `COc1cc(C)ccc1S(=O)(=O)n1cnc2c(N3CCNCC3)cccc21` [Example 69, 1-[(2-methoxy-4-methylphenyl)sulfonyl]-4-piperazin-1-yl-1H-benzimidazole] it was 2.15 nM; in that of `Cc1cccc(S(=O)(=O)n2cnc3c(N4CCNCC4)cccc32)c1F` [Example 73, 1-[(2-fluoro-3-methylphenyl)sulfonyl]-4-piperazin-1-yl-1H-benzimidazole], 0.202 nM.
Take `COc1ccc(Cl)cc1S(=O)(=O)n1cnc2c(N3CCNCC3)cccc21` [Example 65, 1-[(5-chloro-2-methoxyphenyl)sulfonyl]-4-piperazin-1-yl-1H-benzimidazole]: the Ki is 3.56 nM.
Same read-out and setting: the same measure for `Cc1nc2c(N3CCNCC3)cccc2n1S(=O)(=O)c1cccc(F)c1` [Example 26, 1-[(3-fluorophenyl)sulfonyl]-2-methyl-4-piperazin-1-yl-1H-benzimidazole]: 1.7 nM; for `C[C@H]1CN(c2cccc3c2ncn3S(=O)(=O)c2ccccc2Cl)CCN1` [Example 79, 1-[(2-chlorophenyl)sulfonyl]-4-[(3S)-3-methylpiperazin-1-yl]-1H-benzimidazole]: 0.282 nM; for `CC1CN(c2cccc3c2ncn3S(=O)(=O)c2ccccc2OC(F)(F)F)CCN1` (stereo not drawn) [Example 57, 4-(3-methylpiperazin-1-yl)-1-{[2-(trifluoromethoxy)phenyl]sulfonyl}-1H-benzimidazole]: 2.09 nM.
Still for that read-out and setting: the same measure for `COc1ccc(S(=O)(=O)n2cnc3c(N4CCNCC4)cccc32)cc1` [Example 24, 1-[(4-methoxyphenyl)sulfonyl]-4-piperazin-1-yl-1H-benzimidazole]: 15.1 nM.
On the same count and under the same terms, the same measure for `Cc1nc2c(N3CCNC(C)C3)cccc2n1S(=O)(=O)c1ccccc1` (stereo not drawn) [Example 91, 2-methyl-4-(3-methylpiperazin-1-yl)-1-(phenylsulfonyl)-1H-benzimidazole]: 2.44 nM.
For the molecule `Cc1nc2c(N3CCNC(C)C3)cccc2n1S(=O)(=O)c1cccc2ccccc12` (stereo not drawn) [Example 92, 2-methyl-4-(3-methylpiperazin-1-yl)-1-(naphthalen-1-ylsulfonyl)-1H-benzimidazole], the Ki was 0.623 nM.
On the same count and under the same terms, the same measure for `CCc1nc2c(N3CCNCC3)cccc2n1S(=O)(=O)c1ccccc1` [Example 6, 2-ethyl-1-(phenylsulfonyl)-4-piperazin-1-yl-1H-benzimidazole]: 0.447 nM; for `Cc1nc2c(N3CCN[C@@H](C)C3)cccc2n1S(=O)(=O)c1cccc2c(Cl)cccc12` [Example 126, 1-[(5-chloro-1-naphthyl)sulfonyl]-2-methyl-4-[(3S)-3-methylpiperazin-1-yl]-1H-benzimidazole]: 1.05 nM; for `CC(C)c1nc2c(N3CCNCC3)cccc2n1S(=O)(=O)c1cccc2ccccc12` [Example 61, 2-(1-methylethyl)-1-(naphthalen-1-ylsulfonyl)-4-piperazin-1-yl-1H-benzimidazole]: 0.6 nM.
On the same count and under the same terms, in the case of `Cc1c(F)cccc1S(=O)(=O)n1cnc2c(N3CCNCC3)cccc21` [Example 87, 1-[(3-fluoro-2-methylphenyl)sulfonyl]-4-piperazin-1-yl-1H-benzimidazole] it was 0.402 nM; in that of `O=S(=O)(c1c(Cl)cccc1Cl)n1cnc2c(N3CCNCC3)cccc21` [Example 86, 1-[(2,6-dichlorophenyl)sulfonyl]-4-piperazin-1-yl-1H-benzimidazole], 1.33 nM.
Same read-out and setting: the same measure for `Cc1nc2c(N3CCNCC3)cccc2n1S(=O)(=O)c1ccccc1Cl` [Example 15, 1-[(2-chlorophenyl)sulfonyl]-2-methyl-4-piperazin-1-yl-1H-benzimidazole]: 0.99 nM.
`Cc1nc2c(N3CCNCC3)cccc2n1S(=O)(=O)c1ccccc1OC(F)(F)F` [Example 46, 2-methyl-4-piperazin-1-yl-1-{[2-(trifluoromethoxy)phenyl]sulfonyl}-1H-benzimidazole]: the Ki stood at 1.74 nM.
